Data from PubChem BioAssay (NCI).
Several values for one entry are separate records, joined by “and”; a condition that tells them apart may be missing. Equal values may be shown once.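 Results reflect a 48-hour exposure of cells in 96-well plates to compound at five concentrations. Abbreviation: GI50, concentration required for 50% inhibition of growth. TGI: concentration producing complete growth inhibition.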

How the values were obtained:
P388/ADR leukemia = assay: NCI tumour cell line growth inhibition, 48 h
SN12K1 renal = assay: NCI tumour cell line growth inhibition, 48 h

## CSC1SCC2C(=O)N(C)C(C(C)C)C(=O)OCC(NC(=O)c3cnc4ccccc4n3)C(=O)NC(C)C(=O)N(C)C1C(=O)N(C)C(C(C)C)C(=O)OCC(NC(=O)c1cnc3ccccc3n1)C(=O)NC(C)C(=O)N2C (centres undefined)
P388/ADR leukemia
  GI50: 7.5 nM
  TGI: 49 nM and 34.8 nM
SN12K1 renal
  GI50: 0.567 nM
  TGI: 24.8 nM and 80.1 nM
